Reference: US12540143B2, “Methods and compositions for targeted protein degradation” (Ranok Therapeutics (Hangzhou) Co. Ltd., priority 2019, dated 2026)

tested on: MV4-11 cells; experiment: MV4-11 Cytotoxicity Assay; type: cell-based, human; details: Homo sapiens, MV4-11; 72 hr, CCK-8; read-out: MV4-11 cytotoxicity

Row | Compound | IC50
1 | Cc1sc2c(c1C)C(c1ccc(Cl)cc1)=N[C@@H](CC(=O)NCC(=O)NCCOc1ccc(-n3c(O)nnc3-c3cc(C(C)C)c(O)cc3O)cc1)c1nnc(C)n1-2 [Compound 54, (S)-2-(4-(4-chlorophenyl)-2,3,9-trimethyl-6H-thieno[3,2-f][1,2,4]triazolo[4,3-a][1,4]diazepin-6-yl)-N-(2-((2-(4-(3-(2,4-dihydroxy-5-isopropylphenyl)-5-hydroxy-4H-1,2,4-triazol-4-yl)phenoxy)ethyl)amino)-2-oxoethyl)acetamide] | 100 to 1000 nM
2 | Cc1sc2c(c1C)C(c1ccc(Cl)cc1)=N[C@@H](CC(=O)NCC(=O)NCCOCCOc1ccc(-n3c(O)nnc3-c3cc(C(C)C)c(O)cc3O)cc1)c1nnc(C)n1-2 [Compound 55, (S)-2-(4-(4-chlorophenyl)-2,3,9-trimethyl-6H-thieno[3,2-f][1,2,4]triazolo[4,3-a][1,4]diazepin-6-yl)-N-(2-((2-(2-(4-(3-(2,4-dihydroxy-5-isopropylphenyl)-5-hydroxy-4H-1,2,4-triazol-4-yl)phenoxy)ethoxy)ethyl)amino)-2-oxoethyl)acetamide] | 100 to 1000 nM
3 | CCc1cc(-c2nnc(O)n2-c2ccc(CNC(=O)C[C@@H]3N=C(c4ccc(Cl)cc4)c4c(sc(C)c4C)-n4c(C)nnc43)cc2)c(O)cc1O [Compound 56, 2-((6S)-4-(4-chlorophenyl)-2,3,9-trimethyl-6H-thieno[3,2-f][1,2,4]triazolo[4,3-a][1,4]diazepin-6-yl)-N-(4-(3-(5-ethyl-2,4-dihydroxyphenyl)-5-hydroxy-4H-1,2,4-triazol-4-yl)benzyl)acetamide] | 100 to 1000 nM
4 | Cc1sc2c(c1C)C(c1ccc(Cl)cc1)=N[C@@H](CC(=O)NCC(=O)NCc1ccc(-n3c(O)nnc3-c3cc(C(C)C)c(O)cc3O)cc1)c1nnc(C)n1-2 [Compound 57, 2-((6S)-4-(4-chlorophenyl)-2,3,9-trimethyl-6H-thieno[3,2-f][1,2,4]triazolo[4,3-a][1,4]diazepin-6-yl)-N-(2-((4-(3-(2,4-dihydroxy-5-isopropylphenyl)-5-hydroxy-4H-1,2,4-triazol-4-yl)benzyl)amino)-2-oxoethyl)acetamide] | 100 to 1000 nM
5 | Cc1sc2c(c1C)C(c1ccc(Cl)cc1)=N[C@@H](CC(=O)NCC1CN(C(=O)C3CCN(Cc4ccc(-n5c(O)nnc5-c5cc(C(C)C)c(O)cc5O)cc4)CC3)C1)c1nnc(C)n1-2 [Compound 59, 2-((6S)-4-(4-chlorophenyl)-2,3,9-trimethyl-6H-thieno[3,2-f][1,2,4]triazolo[4,3-a][1,4]diazepin-6-yl)-N-((1-(1-(4-(3-(2,4-dihydroxy-5-isopropylphenyl)-5-hydroxy-4H-1,2,4-triazol-4-yl)benzyl)piperidine-4-carbonyl)azetidin-3-yl)methyl)acetamide, trifluoroacetic acid] | < 100 nM
6 | Cc1sc2c(c1C)C(c1ccc(Cl)cc1)=N[C@@H](CC(=O)NCC(=O)NCC1CN(C(=O)C3CCN(Cc4ccc(-n5c(O)nnc5-c5cc(C(C)C)c(O)cc5O)cc4)CC3)C1)c1nnc(C)n1-2 [Compound 60, 2-((6S)-4-(4-chlorophenyl)-2,3,9-trimethyl-6H-thieno[3,2-f][1,2,4]triazolo[4,3-a][1,4]diazepin-6-yl)-N-(2-(((1-(1-(4-(3-(2,4-dihydroxy-5-isopropylphenyl)-5-hydroxy-4H-1,2,4-triazol-4-yl)benzyl)piperidine-4-carbonyl)azetidin-3-yl)methyl)amino)-2-oxoethyl)acetamide, trifluoroacetic acid] | < 100 nM
7 | Cc1sc2c(c1C)C(c1ccc(Cl)cc1)=N[C@@H](CCNCCOc1ccc(-n3c(O)nnc3-c3cc(C(C)C)c(O)cc3O)cc1)c1nnc(C)n1-2 [Compound 62, (S)-4-(4-(4-(2-((2-(4-(4-chlorophenyl)-2,3,9-trimethyl-6H-thieno[3,2-f][1,2,4]triazolo[4,3-a][1,4]diazepin-6-yl)ethyl)amino)ethoxy)phenyl)-5-hydroxy-4H-1,2,4-triazol-3-yl)-6-isopropylbenzene-1,3-diol, trifluoroacetic acid] | 100 to 1000 nM
8 | Cc1sc2c(c1C)C(c1ccc(Cl)cc1)=N[C@@H](CCNCCOCCOc1ccc(-n3c(O)nnc3-c3cc(C(C)C)c(O)cc3O)cc1)c1nnc(C)n1-2 [Compound 63, (S)-4-(4-(4-(2-(2-((2-(4-(4-chlorophenyl)-2,3,9-trimethyl-6H-thieno[3,2-f][1,2,4]triazolo[4,3-a][1,4]diazepin-6-yl)ethyl)amino)ethoxy)ethoxy)phenyl)-5-hydroxy-4H-1,2,4-triazol-3-yl)-6-isopropylbenzene-1,3-diol, trifluoroacetic acid] | 100 to 1000 nM
9 | Cc1sc2c(c1C)C(c1ccc(Cl)cc1)=N[C@@H](CCNCC1CCN(C(=O)C3CCN(Cc4ccc(-n5c(O)nnc5-c5cc(C(C)C)c(O)cc5O)cc4)CC3)CC1)c1nnc(C)n1-2 [Compound 64, (4-(((2-((6S)-4-(4-chlorophenyl)-2,3,9-trimethyl-6H-thieno[3,2-f][1,2,4]triazolo[4,3-a][1,4]diazepin-6-yl)ethyl)amino)methyl)piperidin-1-yl)(1-(4-(3-(2,4-dihydroxy-5-isopropylphenyl)-5-hydroxy-4H-1,2,4-triazol-4-yl)benzyl)piperidin-4-yl) methanone, trifluoroacetic acid] | 100 to 1000 nM
10 | Cc1sc2c(c1C)C(c1ccc(Cl)cc1)=N[C@@H](CCN(C)CCOc1ccc(-n3c(O)nnc3-c3cc(C(C)C)c(O)cc3O)cc1)c1nnc(C)n1-2 [Compound 65, (S)-4-(4-(4-(2-((2-(4-(4-chlorophenyl)-2,3,9-trimethyl-6H-thieno[3,2-f][1,2,4]triazolo[4,3-a][1,4]diazepin-6-yl)ethyl)(methyl)amino)ethoxy)phenyl)-5-hydroxy-4H-1,2,4-triazol-3-yl)-6-isopropylbenzene-1,3-diol] | 100 to 1000 nM
11 | Cc1sc2c(c1C)C(c1ccc(Cl)cc1)=N[C@@H](CCNCC1CCN(C(=O)C3CCN(Cc4ccc(-n5c(O)nnc5-c5cc(C(C)C)c(O)cc5O)cc4)CC3)C1)c1nnc(C)n1-2 (stereo partly drawn) [Compound 66, (3-(((2-((6S)-4-(4-chlorophenyl)-2,3,9-trimethyl-6H-thieno[3,2-f][1,2,4]triazolo[4,3-a][1,4]diazepin-6-yl)ethyl)amino)methyl)pyrrolidin-1-yl)(1-(4-(3-(2,4-dihydroxy-5-isopropylphenyl)-5-hydroxy-4H-1,2,4-triazol-4-yl)benzyl)piperidin-4-yl) methanone, trifluoroacetic acid] | 100 to 1000 nM
12 | CCc1cc(-c2nnc(O)n2-c2ccc(CN3CCC(C(=O)N4CCC(CNCC[C@@H]5N=C(c6ccc(Cl)cc6)c6c(sc(C)c6C)-n6c(C)nnc65)C4)CC3)cc2)c(O)cc1O (stereo partly drawn) [Compound 67, (3-(((2-((6S)-4-(4-chlorophenyl)-2,3,9-trimethyl-6H-thieno[3,2-f][1,2,4]triazolo[4,3-a][1,4]diazepin-6-yl)ethyl)amino)methyl)pyrrolidin-1-yl)(1-(4-(3-(5-ethyl-2,4-dihydroxyphenyl)-5-hydroxy-4H-1,2,4-triazol-4-yl)benzyl)piperidin-4-yl) methanone, trifluoroacetic acid] | 100 to 1000 nM
13 | CCc1cc(-c2nnc(O)n2-c2ccc(CN3CCC(C(=O)N4CCC(CNCC[C@@H]5N=C(c6ccc(Cl)cc6)c6c(sc(C)c6C)-n6c(C)nnc65)CC4)CC3)cc2)c(O)cc1O [Compound 68, (4-(((2-((6S)-4-(4-chlorophenyl)-2,3,9-trimethyl-6H-thieno[3,2-f][1,2,4]triazolo[4,3-a][1,4]diazepin-6-yl)ethyl)amino)methyl)piperidin-1-yl)(1-(4-(3-(5-ethyl-2,4-dihydroxyphenyl)-5-hydroxy-4H-1,2,4-triazol-4-yl)benzyl)piperidin-4-yl) methanone, trifluoroacetic acid] | 100 to 1000 nM
14 | Cc1sc2c(c1C)C(c1ccc(Cl)cc1)=N[C@@H](CCN(C)CCOCCOc1ccc(-n3c(O)nnc3-c3cc(C(C)C)c(O)cc3O)cc1)c1nnc(C)n1-2 [Compound 71, (S)-4-(4-(4-(2-(2-((2-(4-(4-chlorophenyl)-2,3,9-trimethyl-6H-thieno[3,2-f][1,2,4]triazolo[4,3-a][1,4]diazepin-6-yl)ethyl)(methyl)amino)ethoxy)ethoxy)phenyl)-5-hydroxy-4H-1,2,4-triazol-3-yl)-6-isopropylbenzene-1,3-diol, trifluoroacetic acid] | 100 to 1000 nM
15 | Cc1sc2c(c1C)C(c1ccc(Cl)cc1)=N[C@@H](CC(=O)Nc1ccc(NC(=O)C3CCN(Cc4ccc(-n5c(O)nnc5-c5cc(C(C)C)c(O)cc5O)cc4)CC3)cc1)c1nnc(C)n1-2 [Compound 72, N-(4-(2-((6S)-4-(4-chlorophenyl)-2,3,9-trimethyl-6H-thieno[3,2-f][1,2,4]triazolo[4,3-a][1,4]diazepin-6-yl)acetamido)phenyl)-1-(4-(3-(2,4-dihydroxy-5-isopropylphenyl)-5-hydroxy-4H-1,2,4-triazol-4-yl)benzyl)piperidine-4-carboxamide, trifluoroacetic acid] | < 100 nM
16 | CCc1cc(-c2nnc(O)n2-c2ccc(CN3CCC(C(=O)N4CCC(CNC(=O)C[C@@H]5N=C(c6ccc(Cl)cc6)c6c(sc(C)c6C)-n6c(C)nnc65)C4)CC3)cc2)c(O)cc1O (stereo partly drawn) [Compound 77, 2-((6S)-4-(4-chlorophenyl)-2,3,9-trimethyl-6H-thieno[3,2-f][1,2,4]triazolo[4,3-a][1,4]diazepin-6-yl)-N-((1-(1-(4-(3-(5-ethyl-2,4-dihydroxyphenyl)-5-hydroxy-4H-1,2,4-triazol-4-yl)benzyl)piperidine-4-carbonyl)pyrrolidin-3-yl)methyl)acetamide, trifluoroacetic acid] | 100 to 1000 nM
17 | Cc1sc2c(c1C)C(c1ccc(Cl)cc1)=N[C@@H](CC(=O)N1CCN(c3ccc(-n4c(O)nnc4-c4cc(C(C)C)c(O)cc4O)cc3)CC1)c1nnc(C)n1-2 [Compound 79, (S)-2-(4-(4-chlorophenyl)-2,3,9-trimethyl-6H-thieno[3,2-f][1,2,4]triazolo[4,3-a][1,4]diazepin-6-yl)-1-(4-(4-(3-(2,4-dihydroxy-5-isopropylphenyl)-5-hydroxy-4H-1,2,4-triazol-4-yl)phenyl)piperazin-1-yl)ethan-1-one] | < 100 nM
